From ChEMBL document CHEMBL4680227, “Design and synthesis of selective degraders of EGFR mutant” (Eur J Med Chem, 2020)

Key:
[1] = target: von Hippel-Lindau disease tumor suppressor/Epidermal growth factor receptor (Homo sapiens, UniProt P00533+P40337); assay: Protac activity at VHL/EGFR in human A431 cells assessed as EGFR degradation by Western blot analysis; type: cell-based; settings: a-431
[2] = target: von Hippel-Lindau disease tumor suppressor/Epidermal growth factor receptor (Homo sapiens, UniProt P00533+P40337, T790M/L858R); assay: Protac activity at VHL/EGFR L858R/T790M mutant in human NCI-H1975 cells assessed as EGFR degradation by Western blot analysis; type: cell-based
[3] = target: E3 ubiquitin-protein ligase Mdm2/Epidermal growth factor receptor (Homo sapiens, UniProt Q00987+P00533, T790M/L858M); assay: Protac activity at MDM2/EGFR L858R/T790M mutant in human NCI-H1975 cells assessed as EGFR degradation by Western blot analysis; type: cell-based
[4] = target: E3 ubiquitin-protein ligase Mdm2/Epidermal growth factor receptor (Homo sapiens, UniProt Q00987+P00533); assay: Protac activity at MDM2/EGFR in human A431 cells assessed as EGFR degradation by Western blot analysis; type: cell-based; settings: a-431
[5] = target: Protein cereblon/Epidermal growth factor receptor (Homo sapiens, UniProt P00533+Q96SW2); assay: Protac activity at CRBN/EGFR in human A431 cells assessed as EGFR degradation by Western blot analysis; type: cell-based; settings: a-431
[6] = target: Epidermal growth factor receptor (Homo sapiens, UniProt P00533, T790M/L858R); assay: Induction of EGFR L858R/T790M mutant degradation in human NCI-H1975 cells by Western blot analysis
[7] = target: Epidermal growth factor receptor (Homo sapiens, UniProt P00533); assay: Induction of EGFR degradation in human A431 cells by Western blot analysis; settings: a-431

von Hippel-Lindau disease tumor suppressor/Epidermal growth factor receptor (Homo sapiens, UniProt P00533+P40337), sequence (P00533 whole entry): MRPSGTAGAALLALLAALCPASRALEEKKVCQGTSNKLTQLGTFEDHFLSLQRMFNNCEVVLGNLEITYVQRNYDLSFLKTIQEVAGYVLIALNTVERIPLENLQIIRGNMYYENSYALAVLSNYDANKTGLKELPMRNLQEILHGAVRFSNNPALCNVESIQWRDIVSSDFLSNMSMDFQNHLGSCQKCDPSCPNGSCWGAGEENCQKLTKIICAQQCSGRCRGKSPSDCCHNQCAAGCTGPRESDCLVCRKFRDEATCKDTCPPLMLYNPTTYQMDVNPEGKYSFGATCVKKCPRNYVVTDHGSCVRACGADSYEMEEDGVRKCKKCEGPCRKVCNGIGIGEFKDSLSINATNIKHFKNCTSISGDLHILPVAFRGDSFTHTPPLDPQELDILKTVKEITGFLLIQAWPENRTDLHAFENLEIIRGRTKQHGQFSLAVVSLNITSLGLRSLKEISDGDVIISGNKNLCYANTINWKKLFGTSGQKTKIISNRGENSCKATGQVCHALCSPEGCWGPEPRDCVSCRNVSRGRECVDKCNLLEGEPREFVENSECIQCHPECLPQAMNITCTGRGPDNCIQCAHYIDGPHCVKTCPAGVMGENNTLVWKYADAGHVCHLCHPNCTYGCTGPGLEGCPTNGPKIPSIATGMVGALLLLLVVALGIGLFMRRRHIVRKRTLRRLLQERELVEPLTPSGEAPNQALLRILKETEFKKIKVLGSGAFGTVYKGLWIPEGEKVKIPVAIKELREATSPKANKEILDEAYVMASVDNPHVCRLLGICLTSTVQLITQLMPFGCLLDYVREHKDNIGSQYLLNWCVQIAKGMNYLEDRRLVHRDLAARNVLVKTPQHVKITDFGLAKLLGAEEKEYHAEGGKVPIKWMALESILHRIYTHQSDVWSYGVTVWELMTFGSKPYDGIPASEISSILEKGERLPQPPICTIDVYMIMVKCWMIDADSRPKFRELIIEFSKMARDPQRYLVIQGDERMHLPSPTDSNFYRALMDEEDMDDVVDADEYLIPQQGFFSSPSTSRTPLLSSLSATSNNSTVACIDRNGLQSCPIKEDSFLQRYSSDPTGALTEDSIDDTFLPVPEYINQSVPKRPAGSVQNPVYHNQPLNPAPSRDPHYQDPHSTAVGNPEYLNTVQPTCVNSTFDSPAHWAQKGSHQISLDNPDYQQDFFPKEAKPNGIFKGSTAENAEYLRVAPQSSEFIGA
von Hippel-Lindau disease tumor suppressor/Epidermal growth factor receptor (Homo sapiens, UniProt P00533+P40337), sequence (P40337 whole entry): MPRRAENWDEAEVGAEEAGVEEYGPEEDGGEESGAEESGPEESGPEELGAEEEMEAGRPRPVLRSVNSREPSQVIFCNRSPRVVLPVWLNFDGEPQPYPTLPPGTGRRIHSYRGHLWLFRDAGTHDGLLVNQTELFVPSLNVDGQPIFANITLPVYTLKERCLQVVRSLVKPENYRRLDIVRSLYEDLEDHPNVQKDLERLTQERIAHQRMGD
von Hippel-Lindau disease tumor suppressor/Epidermal growth factor receptor (Homo sapiens, UniProt P00533+P40337, T790M/L858R), sequence (P00533 whole entry, looked up, stated change not applied): as the sequence (P00533 whole entry) above
von Hippel-Lindau disease tumor suppressor/Epidermal growth factor receptor (Homo sapiens, UniProt P00533+P40337, T790M/L858R), sequence (P40337 whole entry, looked up, stated change not applied): as the sequence (P40337 whole entry) above
E3 ubiquitin-protein ligase Mdm2/Epidermal growth factor receptor (Homo sapiens, UniProt Q00987+P00533), sequence (Q00987 whole entry): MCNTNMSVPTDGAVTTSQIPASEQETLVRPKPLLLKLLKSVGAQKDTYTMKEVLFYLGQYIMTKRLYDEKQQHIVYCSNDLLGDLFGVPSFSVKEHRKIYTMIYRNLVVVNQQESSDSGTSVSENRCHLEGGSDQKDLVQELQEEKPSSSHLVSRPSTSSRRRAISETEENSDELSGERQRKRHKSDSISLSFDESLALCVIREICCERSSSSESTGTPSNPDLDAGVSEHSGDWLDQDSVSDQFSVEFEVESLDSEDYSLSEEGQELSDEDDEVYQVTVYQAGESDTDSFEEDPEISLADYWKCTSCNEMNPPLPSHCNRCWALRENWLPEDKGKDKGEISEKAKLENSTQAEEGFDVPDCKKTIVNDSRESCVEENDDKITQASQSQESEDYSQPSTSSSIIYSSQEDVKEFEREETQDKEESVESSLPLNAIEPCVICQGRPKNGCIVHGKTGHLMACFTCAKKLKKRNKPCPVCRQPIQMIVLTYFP
E3 ubiquitin-protein ligase Mdm2/Epidermal growth factor receptor (Homo sapiens, UniProt Q00987+P00533), sequence (P00533 whole entry): as the sequence (P00533 whole entry) above

`C=CC(=O)Nc1cccc(-n2c(=O)cc(C)c3cnc(Nc4ccc(N5CCN(C(=O)CCCCCCC(=O)N[C@H](C(=O)N6C[C@H](O)C[C@H]6C(=O)NCc6ccc(-c7scnc7C)cc6)C(C)(C)C)CC5)cc4OC)nc32)c1` showed a DC50 [1] of over 2000 nM and a DC50 [2] of 235 nM.
`C=CC(=O)Nc1cccc(-n2c(=O)cc(C)c3cnc(Nc4ccc(N5CCN(C(=O)CCCCC(=O)N[C@H](C(=O)N6C[C@H](O)C[C@H]6C(=O)NCc6ccc(-c7scnc7C)cc6)C(C)(C)C)CC5)cc4OC)nc32)c1` was tested, and the DC50 [1] was over 2000 nM.
`C=CC(=O)Nc1cccc(-n2c(=O)cc(C)c3cnc(Nc4ccc(N5CCN(CCCCCCCCCC(=O)N[C@H](C(=O)N6C[C@H](O)C[C@H]6C(=O)NCc6ccc(-c7scnc7C)cc6)C(C)(C)C)CC5)cc4OC)nc32)c1` showed a DC50 [1] of over 2000 nM and a DC50 [2] of 132 nM.
Work on `C=CC(=O)Nc1cccc(-n2c(=O)cc(C)c3cnc(Nc4ccc(N5CCN(C(=O)CCCCCCCCCNC(=O)c6ccc(NC(=O)[C@@H]7N[C@@H](CC(C)(C)C)[C@](C#N)(c8ccc(Cl)cc8F)[C@H]7c7cccc(Cl)c7F)c(OC)c6)CC5)cc4OC)nc32)c1` yielded a DC50 [3] of 313 nM and a DC50 [4] of over 2000 nM.
For `C=CC(=O)Nc1cccc(-n2c(=O)cc(C)c3cnc(Nc4ccc(N5CCN(C(=O)CCCCCCCCCCC(=O)Nc6cccc7c6C(=O)N(C6CCC(=O)NC6=O)C7=O)CC5)cc4OC)nc32)c1` (centres undefined), the DC50 [5] was over 2000 nM.
For `C=CC(=O)Nc1cccc(-n2c(=O)cc(C)c3cnc(Nc4ccc(N5CCN(CCCCCCCC(=O)N[C@H](C(=O)N6C[C@H](O)C[C@H]6C(=O)NCc6ccc(-c7scnc7C)cc6)C(C)(C)C)CC5)cc4OC)nc32)c1`, the DC50 [1] was over 2000 nM and the DC50 [2] was 466 nM.
Compound `C=CC(=O)Nc1cccc(-n2c(=O)cc(C)c3cnc(Nc4ccc(N5CCN(C(=O)CCCCCCCCC(=O)N[C@H](C(=O)N6C[C@H](O)C[C@H]6C(=O)NCc6ccc(-c7scnc7C)cc6)C(C)(C)C)CC5)cc4OC)nc32)c1` has a DC50 [1] of over 2000 nM and a DC50 [2] of 69 nM.
With `C=CC(=O)Nc1cccc(-n2c(=O)cc(C)c3cnc(Nc4ccc(N5CCN(C)CC5)cc4OC)nc32)c1` the DC50 [6] was over 2000 nM and the DC50 [7] was over 2000 nM.
